Reference: patent publication US9113629B2, “4-amino-6-(4-substituted-phenyl)-picolinates and 6-amino-2-(4-substituted-phenyl)-pyrimidine-4-carboxylates and their use as herbicides” (DOW AGROSCIENCES LLC, priority 2013, dated 2015)
Where two headings read alike, the source gives them in different places.

Tests used:
[1] = tested on: Key Broadleaf Weed and Crop Species; test: Post-emergent Test II herbicidal activity (Table 5); type: in vivo; details: post-emergence, 336 h, 14 days after application; for pest or weed control at 70 g/ha: application rate 70 g ai/ha; for pest or weed control at 140 g/ha: application rate 140 g ai/ha
In short: (§1)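 Post-emergence foliar spray, 187 L/ha, track sprayer at 43 cm above canopy. Carrier: acetone/water/IPA/DMSO/Atplus 411F/Triton X-155. Plants at 1st–2nd true leaf; subirrigated afterwards; % injury scored visually at 14 d.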

[2] = tested on: Key Grass and Sedge Weeds as well as Grass Crops; test: Post-emergent Test II herbicidal activity (Table 6); type: in vivo; details: post-emergence, 336 h; for pest or weed control at 70 g/ha: 70 g ai/ha; for pest or weed control at 140 g/ha: 140 g ai/ha
In short: as §1

[3] = ABUTH: velvetleaf (Abutilon theophrasti), read-out: Visual Growth Reduction (%) 14 Days After Application, ABUTH
[4] = AMARE: redroot pigweed (Amaranthus retroflexus), read-out: Visual Growth Reduction (%) 14 Days After Application, AMARE
[5] = BRSNN: oilseed-rape, canola (Brassica napus), read-out: Visual Growth Reduction (%) 14 Days After Application, BRSNN
[6] = CHEAL: lambsquarters (Chenopodium album), read-out: Visual Growth Reduction (%) 14 Days After Application, CHEAL
[7] = EPHHL: wild poinsettia (Euphorbia heterophylla), read-out: Visual Growth Reduction (%) 14 Days After Application, EPHHL
[8] = HELAN: sunflower (Helianthus annuus), read-out: Visual Growth Reduction (%) 14 Days After Application, HELAN
[9] = VIOTR: wild pansy (Viola tricolor), read-out: Visual Growth Reduction (%) 14 Days After Application, VIOTR
[10] = CYPES: yellow nutsedge (Cyperus esculentus), read-out: Visual Growth Reduction (%) 14 Days After Application, CYPES
[11] = DIGSA: crabgrass (Digitaria sanguinalis), read-out: Visual Growth Reduction (%) 14 Days After Application, DIGSA
[12] = ECHCG: barnyardgrass (Echinochloa crus-galli), read-out: Visual Growth Reduction (%) 14 Days After Application, ECHCG
[13] = ORYSA: rice (Oryza sativa), crop, read-out: Visual Growth Reduction (%) 14 Days After Application, ORYSA
[14] = SETFA: giant foxtail (Setaria faberi), read-out: Visual Growth Reduction (%) 14 Days After Application, SETFA
[15] = SORVU: grain sorghum (Sorghum vulgare), read-out: Visual Growth Reduction (%) 14 Days After Application, SORVU
[16] = TRZSS (wheat, Triticum aestivum), crop, read-out: Visual Growth Reduction (%) 14 Days After Application, TRZSS
[17] = ZEAMX: maize, corn (Zea mays), crop, read-out: Visual Growth Reduction (%) 14 Days After Application, ZEAMX

## Nc1c(F)c(-c2ccc(I)cc2)nc(C(=O)O)c1Cl [Compound 45, 4-amino-3-chloro-5-fluoro-6-(4-iodophenyl)picolinic acid]
[1]; [3]
  pest or weed control at 70 g/ha: 95 to 100%
  pest or weed control at 140 g/ha: 95 to 100%
[1]; [4]
  pest or weed control at 70 g/ha: 95 to 100%
  pest or weed control at 140 g/ha: 95 to 100%
[1]; [5]
  pest or weed control at 70 g/ha: 95 to 100%
  pest or weed control at 140 g/ha: 95 to 100%
[1]; [6]
  pest or weed control at 70 g/ha: 95 to 100%
  pest or weed control at 140 g/ha: 95 to 100%
[1]; [7]
  pest or weed control at 70 g/ha: 95 to 100%
  pest or weed control at 140 g/ha: 95 to 100%
[1]; [8]
  pest or weed control at 70 g/ha: 95 to 100%
  pest or weed control at 140 g/ha: 95 to 100%
[1]; [9]
  pest or weed control at 70 g/ha: 85 to 94%
  pest or weed control at 140 g/ha: 95 to 100%
[2]; [10]
  pest or weed control at 70 g/ha: 85 to 94%
  pest or weed control at 140 g/ha: 95 to 100%
[2]; [11]
  pest or weed control at 70 g/ha: 85 to 94%
  pest or weed control at 140 g/ha: 85 to 94%
[2]; [12]
  pest or weed control at 70 g/ha: 95 to 100%
  pest or weed control at 140 g/ha: 95 to 100%
[2]; [13]
  pest or weed control at 70 g/ha: 45 to 59%
  pest or weed control at 140 g/ha: 60 to 74%
[2]; [14]
  pest or weed control at 70 g/ha: 85 to 94%
  pest or weed control at 140 g/ha: 85 to 94%
[2]; [15]
  pest or weed control at 70 g/ha: 60 to 74%
  pest or weed control at 140 g/ha: 95 to 100%
[2]; [16]
  pest or weed control at 70 g/ha: 60 to 74%
  pest or weed control at 140 g/ha: 75 to 84%
[2]; [17]
  pest or weed control at 70 g/ha: 85 to 94%
  pest or weed control at 140 g/ha: 95 to 100%
